Reference: patent US20250129018A1, “PLEUROMUTILIN DERIVATIVES CONTAINING CYCLOALKYL GROUP AND PREPARATION METHODS AND APPLICATIONS THEREOF” (priority 2023, published 2025)
Converted amounts (≈) assume the structure as drawn. Like-named read-outs stand apart in the source and are kept apart here.

Key:
[1] = tested on: S. agalactiae-1; test: MIC, two-fold serial dilution method; format: cell-based; details: Streptococcus agalactiae, read-out: minimum inhibitory concentration
Experimental: (§1) The pleuromutilin derivatives 1-4 prepared from Example 9 of the present disclosure were determined for their effect on Methicillin-resistant Staphylococcus aureus, Methicillin-resistant Staphylococcus epidermidis, standard strains of Staphylococcus aureus (S. aureus-29213 and S. aureus-25923), clinical strains 1-48 of S. aureus, Escherichia coli, S. agalactiae and S. dysgalactiae equisimilis (S. dysgalactiae-1, S. dysgalactiae-2, S. dysgalactiae-3) and minimum inhibitory concentration (MIC) using a two-fold serial dilution method, and the results were shown in Table 1, Table 2 and Table 3. The standard strains are commercially available from ATCC, and the clinical strains are preserved by Lanzhou Institute of Husbandry and Pharmaceutical Science of Chinese Academy of Agricultural Sciences (Lanzhou, Gansu, China).

[2] = tested on: MRSA-337371; test: In vivo antimicrobial activity experiment in mice (systemic MRSA infection, survival); details: for protection rate against systemic MRSA infection in mice: 20 mg/kg; for mortality rate / final survival rate: immunosuppressed mice infected i.p. with MRSA-337371; for final survival rate: end of observation
Experimental: First, an MRSA-337371 cryopreservation solution was taken out from a freezer set at −80° C. and the following steps were performed: • (1) 10 μL of the thawed MRSA-337371 cryopreservation solution was pipetted and added into 6 mL of Tryptic Soy Broth (TSB), and incubated until the bacterial solution had become turbid; • (2) a sterile inoculation loop was dipped into and picked up a small amount of the bacterial solution and was dragged on an MH agar medium for streaking, and then the MH agar medium was inverted and placed in a constant temperature incubator at 37° C. to incubate for 24 hours; • (3) a single colony on the MH agar medium was picked and inoculated in 30 mL of MH liquid medium with an inoculation loop, and placed in a constant temperature shaking incubator at 37° C. for 18 hours for later use. […]
6-week-old, about 20 g-weighted, SPF-grade healthy mice (one half male and the other female) were randomly divided into 5 groups, with 10 mice in each group (one half male and the other female), which were specifically divided into a positive control group (an MRSA infection group), a negative control group (a sterile normal saline control group, which was injected with only 10 mL/kg of drug solvent), drug control groups (a Tiamulin treatment group and a Valnemulin treatment group) and an experimental group (a derivative 2 treatment group). 100 mg/kg of cyclophosphamide was intraperitoneally injected to the mice 4 days before the experiment, and 150 mg/kg of cyclophosphamide injection was injected to the mice 1 day before the experiment to keep the mice in an immunosuppressed state. After fasting for 12 hours, except for the negative control group, the remaining 4 groups were intraperitoneally injected with 0.5 mL of 10^8 CFU/mL bacterial solution, and after 30 min, the drug control groups and the experimental group were intravenously injected with 20 mg/kg of the respective drug. The mice were continued to be reared, and observed to record the deaths daily.
Calculation of survival rate: During the experiment, the morbidity and the mortality in each group of mice was observed and recorded in detail every day, and the survival rate in each group of mice was calculated as:
Survival rate=Number of surviving animals/Number of experimental animals×100%

[3] = tested on: S. dysgalactiae-1; test: MIC, two-fold serial dilution method; format: cell-based, S. dysgalactiae equisimilis; details: Streptococcus dysgalactiae, read-out: minimum inhibitory concentration
Experimental: as §1

[4] = tested on: S. dysgalactiae-3; test: MIC, two-fold serial dilution method; format: cell-based, S. dysgalactiae equisimilis; details: Streptococcus dysgalactiae, read-out: minimum inhibitory concentration
Experimental: as §1

[5] = tested on: S. dysgalactiae-2; test: MIC, two-fold serial dilution method; format: cell-based, S. dysgalactiae equisimilis; details: Streptococcus dysgalactiae, read-out: minimum inhibitory concentration
Experimental: as §1

[6] = tested on: S. aureus-44; test: MIC, clinical strain; format: cell-based, Staphylococcus aureus
Experimental: as §1

[7] = tested on: S. aureus-32; test: MIC, clinical strain; format: cell-based, Staphylococcus aureus
Experimental: as §1

[8] = tested on: S. aureus-34; test: MIC, clinical strain; format: cell-based, Staphylococcus aureus
Experimental: as §1

[9] = tested on: S. aureus-42; test: MIC, clinical strain; format: cell-based, Staphylococcus aureus
Experimental: as §1

[10] = tested on: S. aureus-12; test: MIC, clinical strain; format: cell-based, Staphylococcus aureus
Experimental: as §1

[11] = tested on: S. aureus-39; test: MIC, clinical strain; format: cell-based, Staphylococcus aureus
Experimental: as §1

[12] = tested on: S. aureus-46; test: MIC, clinical strain; format: cell-based, Staphylococcus aureus
Experimental: as §1

[13] = tested on: S. aureus-25; test: MIC, clinical strain; format: cell-based, Staphylococcus aureus
Experimental: as §1

[14] = tested on: S. aureus-11; test: MIC, clinical strain; format: cell-based, Staphylococcus aureus
Experimental: as §1

[15] = tested on: S. aureus-38; test: MIC, clinical strain; format: cell-based, Staphylococcus aureus
Experimental: as §1

[16] = tested on: S. aureus-2; test: MIC, clinical strain; format: cell-based, Staphylococcus aureus
Experimental: as §1

[17] = tested on: S. aureus-7; test: MIC, clinical strain; format: cell-based, Staphylococcus aureus
Experimental: as §1

[18] = tested on: S. aureus-1; test: MIC, clinical strain; format: cell-based, Staphylococcus aureus
Experimental: as §1

[19] = tested on: S. aureus-33; test: MIC, clinical strain; format: cell-based, Staphylococcus aureus
Experimental: as §1

[20] = tested on: S. aureus-26; test: MIC, clinical strain; format: cell-based, Staphylococcus aureus
Experimental: as §1

[21] = tested on: S. aureus-29; test: MIC, clinical strain; format: cell-based, Staphylococcus aureus
Experimental: as §1

[22] = tested on: S. aureus-17; test: MIC, clinical strain; format: cell-based, Staphylococcus aureus
Experimental: as §1

[23] = tested on: S. aureus-47; test: MIC, clinical strain; format: cell-based, Staphylococcus aureus
Experimental: as §1

[24] = tested on: S. aureus-14; test: MIC, clinical strain; format: cell-based, Staphylococcus aureus
Experimental: as §1

[25] = tested on: MRSE; test: MIC, two-fold serial dilution method; format: cell-based, Methicillin-resistant Staphylococcus epidermidis; details: Staphylococcus epidermidis, read-out: minimum inhibitory concentration
Experimental: as §1

[26] = tested on: MRSA-337371; test: MIC, two-fold serial dilution method; format: cell-based, Methicillin-resistant Staphylococcus aureus; details: Staphylococcus aureus, read-out: minimum inhibitory concentration
Experimental: as §1

[27] = tested on: S. aureus-29213; test: MIC, two-fold serial dilution method; format: cell-based, Staphylococcus aureus; details: Staphylococcus aureus, read-out: minimum inhibitory concentration
Experimental: as §1

[28] = tested on: S. aureus-25923; test: MIC, two-fold serial dilution method; format: cell-based, Staphylococcus aureus; details: Staphylococcus aureus, read-out: minimum inhibitory concentration
Experimental: as §1

[29] = day 1, 20 mg/kg intravenously 30 min after infection

C=C[C@]1(C)C[C@@H](OC(=O)CSCCN(CC)CC)[C@]2(C)[C@H](C)CC[C@]3(CCC(=O)[C@H]32)[C@@H](C)[C@@H]1O [Tiamulin]
MIC ([1]; S. agalactiae-1): 0.25 mg/L (≈ 0.506 µM) | protection rate against systemic MRSA infection in mice [2]: 10% | mortality rate [2, 29]: 50% | mortality rate ([2]; day 2, 20 mg/kg intravenously): 80% | mortality rate ([2]; day 3, 20 mg/kg intravenously): 90% | final survival rate ([2]; 20 mg/kg intravenously): 10% | MIC ([3]; S. dysgalactiae-1): 0.25 mg/L (≈ 0.506 µM) | MIC ([4]; S. dysgalactiae-3): 0.25 mg/L (≈ 0.506 µM) | MIC ([5]; S. dysgalactiae-2): 0.25 mg/L (≈ 0.506 µM) | in vitro minimum inhibitory concentration [6]: 0.5 | in vitro minimum inhibitory concentration [7]: 1 | in vitro minimum inhibitory concentration [8]: 0.5 | in vitro minimum inhibitory concentration [9]: 0.5 | in vitro minimum inhibitory concentration [10]: 0.5 | in vitro minimum inhibitory concentration [11]: 0.25 | in vitro minimum inhibitory concentration [12]: 1 | in vitro minimum inhibitory concentration [13]: 0.5 | in vitro minimum inhibitory concentration [14]: 0.5 | in vitro minimum inhibitory concentration [15]: 0.5 | in vitro minimum inhibitory concentration [16]: 0.5 | in vitro minimum inhibitory concentration [17]: 1 | in vitro minimum inhibitory concentration [18]: 0.5 mg/L | in vitro minimum inhibitory concentration [19]: 1 | in vitro minimum inhibitory concentration [20]: 0.5 | in vitro minimum inhibitory concentration [21]: 1 | in vitro minimum inhibitory concentration [22]: 0.5 | in vitro minimum inhibitory concentration [23]: 0.5 | in vitro minimum inhibitory concentration [24]: 0.5 | MIC [25]: 0.5 mg/L (≈ 1.01 µM) | MIC ([26]; MRSA-337371): 0.25 mg/L (≈ 0.506 µM) | MIC ([27]; S. aureus-29213): 0.5 mg/L (≈ 1.01 µM) | MIC ([28]; S. aureus-25923): 0.25 mg/L (≈ 0.506 µM)

C=C[C@]1(C)C[C@@H](OC(=O)CSC(C)(C)CNC(=O)[C@H](N)C(C)C)[C@]2(C)[C@H](C)CC[C@]3(CCC(=O)[C@H]32)[C@@H](C)[C@@H]1O [Valnemulin]
MIC [1]: 0.031 mg/L (≈ 0.0549 µM) | protection rate against systemic MRSA infection in mice [2]: 20% | mortality rate [2, 29]: 30% | mortality rate ([2]; day 2, 20 mg/kg intravenously): 80% | final survival rate ([2]; 20 mg/kg intravenously): 20% | MIC [3]: 0.031 mg/L (≈ 0.0549 µM) | MIC [4]: 0.031 mg/L (≈ 0.0549 µM) | MIC [5]: 0.031 mg/L (≈ 0.0549 µM) | in vitro minimum inhibitory concentration [6]: 0.063 | in vitro minimum inhibitory concentration [7]: 0.063 | in vitro minimum inhibitory concentration [8]: 0.063 | in vitro minimum inhibitory concentration [9]: 0.063 | in vitro minimum inhibitory concentration [10]: 0.031 | in vitro minimum inhibitory concentration [11]: 0.125 | in vitro minimum inhibitory concentration [12]: 0.063 | in vitro minimum inhibitory concentration [13]: 0.063 | in vitro minimum inhibitory concentration [14]: 0.063 | in vitro minimum inhibitory concentration [15]: 0.063 | in vitro minimum inhibitory concentration [16]: 0.25 | in vitro minimum inhibitory concentration [17]: 0.063 | in vitro minimum inhibitory concentration [18]: 0.25 mg/L | in vitro minimum inhibitory concentration [19]: 0.063 | in vitro minimum inhibitory concentration [20]: 0.063 | in vitro minimum inhibitory concentration [21]: 0.063 | in vitro minimum inhibitory concentration [22]: 0.063 | in vitro minimum inhibitory concentration [23]: 0.063 | in vitro minimum inhibitory concentration [24]: 0.125 | MIC [25]: 0.031 mg/L (≈ 0.0549 µM) | MIC ([26]; MRSA): 0.031 mg/L (≈ 0.0549 µM) | MIC [27]: 0.063 mg/L (≈ 0.112 µM) | MIC [28]: 0.031 mg/L (≈ 0.0549 µM)
